In patent US10155027B2, “Alpha-galactosidase A and 1-deoxygalactonojirimycin co-formulation for the treatment of fabry disease” (Amicus Therapeutics, Inc., priority 2012, dated 2018):
Where a name gives a salt, the structure may show the parent alone.

Target: T1, α-Gal A (Homo sapiens, UniProt P06280)
T1 construct: purchased JCR Pharmaceuticals Co. Ltd, (Japan) JR-051; host or cells: CHO cells
T1 sequence (P06280 32-429): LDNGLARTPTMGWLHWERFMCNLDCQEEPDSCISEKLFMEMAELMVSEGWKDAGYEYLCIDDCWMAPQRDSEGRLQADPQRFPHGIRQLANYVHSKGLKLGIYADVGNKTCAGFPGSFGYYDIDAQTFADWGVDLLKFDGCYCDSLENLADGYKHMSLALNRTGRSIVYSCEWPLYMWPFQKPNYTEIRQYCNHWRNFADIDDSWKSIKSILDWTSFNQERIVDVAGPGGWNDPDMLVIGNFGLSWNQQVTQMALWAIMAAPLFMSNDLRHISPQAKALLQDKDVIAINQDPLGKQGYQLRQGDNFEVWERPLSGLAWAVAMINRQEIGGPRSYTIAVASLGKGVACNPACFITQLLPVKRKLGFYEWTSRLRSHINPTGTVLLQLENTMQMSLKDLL
Assay: α-Gal A stability in whole blood ex vivo at 37° C.
Assay type: in vitro ADME
Settings: 5 nM and 50 nM α-Gal A formulated with 10 μM DGJ
Description: The effect of co-formulating α-Gal A with DGJ on α-Gal A stability in blood ex vivo was examined. Time-dependent loss of α-Gal A activity in whole blood at 37° C. was determined. 5 nM and 50 nM α-Gal A was formulated with or without 10 μM DGJ.

OC[C@H]1NC[C@H](O)[C@@H](O)[C@H]1O [migalastat HCl, (2R,3S,4R,5S)-2-(hydroxymethyl) piperdine-3,4,5-triol]
effect on α-Gal A stability in whole blood: stabilized the enzyme and prevented enzyme inactivation
